Results from patent US9012441B2, “Therapeutic compounds” (Gilead Sciences, Inc., priority 2013, dated 2015).
Where two headings read alike, the source gives them in different places.

What was measured:
[1] = Test B: Cytotoxicity Assay (uninfected MT-4 cells); format: cell-based; details: human, same protocol as Test A, read-out: MT4-CC50
Method: (§1) For the antiviral assay, 40 μL of 1× test concentration of 3-fold serially diluted compound in culture medium with 10% FBS was added to each well of a 384-well plate (10 concentrations) in quadruplicate. MT-4 cells were next mixed with HIV-IIIb at an m.o.i of 0.003 for 1 hour, after which time 35 μL of virus/cell mixture (2000 cells) was immediately added to each well containing 40 μL of diluted compound. The plates were then incubated at 37° C. for 5 days. After 5 days of incubation, 25 μl of 2× concentrated CellTiter-Glo™ Reagent (catalog #G7571, Promega Biosciences, Inc., Madison, Wis.) was added to each well containing MT-4 cells. Cell lysis was carried out by incubating at room temperature for 10 min and then chemiluminescence was read. […] Test B: Cytotoxicity Assay Compound cytotoxicity and the corresponding CC50 values were determined using the same protocol as described in the antiviral assay (Test A) except that uninfected cells were used.

[2] = system: HIV-IIIb; experiment: Test A: Antiviral Assay in MT4 Cells; format: cell-based, HIV-1; details: Human immunodeficiency virus 1, MT4, 120 h, read-out: % Inh @ 2 uM (percent inhibition of virus-induced cell killing); 2 uM test compound; MT-4 cells infected with HIV-IIIb, 5 days, CellTiter-Glo
Method: as §1, with “Test A: Antiviral Assay in MT4 Cells For” for “For”, “Accordingly,” for “Test B: Cytotoxicity Assay Compound cytotoxicity and”, “compounds disclosed herein may be useful for treating an HIV virus infection, treating AIDS or for delaying” for “corresponding CC50 values were determined using”, “onset of AIDS or ARC symptoms.” for “same protocol as described in the antiviral assay (Test A) except that uninfected cells were used.”

SMILES | CC50 at 5 days [1] | inhibition at 2 µM [2] | other results
CN(C(=O)N1Cc2cc(F)cc(c2)/C=C\Cc2c(c3ccccc3n2C(=O)OC(C)(C)C)CC(=O)N1)c1ccc(Cl)cc1 | – | – | ring closure, yield of all isomers (from C=CCc1c(CC(=O)NN(Cc2cc(F)cc(Br)c2)C(=O)N(C)c2ccc(Cl)cc2)c2ccccc2n1C(=O)OC(C)(C)C, cc_pd bond, Pd(OAc)2, acetonitrile, 3.1 mM, 110.0 °C, 1.0 h): 23.6%
COC(=O)[C@@H]1Cc2cc(F)cc(c2)/C=C\Cc2c(c3ccccc3n2C(=O)OC(C)(C)C)CC(=O)N1 | – | – | ring closure, yield of all isomers (from C=CCc1c(CC(=O)N[C@@H](Cc2cc(F)cc(Br)c2)C(=O)OC)c2ccccc2n1C(=O)OC(C)(C)C, cc_pd bond, Pd(PPh3)4, acetonitrile, 4.3 mM, 82.0 °C, 6.0 h): 49.9%
COC(=O)[C@@H]1Cc2cccc(c2)C/C=C/c2[nH]c3ccc(OC)nc3c2CC(=O)N1 | – | – | ring closure, yield of all isomers (from C=CCc1cccc(C[C@H](NC(=O)Cc2c(Br)n(C(=O)OC(C)(C)C)c3ccc(OC)nc23)C(=O)OC)c1, cc_pd bond, Pd(OAc)2, DMF, 2.46 mM, 120.0 °C, 5.0 h): 33.3%
COc1ccc(N(C)C(=O)[C@@H]2Cc3cccc(c3)/C=C/Cc3c(c4ccccc4n3C(=O)OC(C)(C)C)CC(=O)N2)cc1 | – | – | ring closure, yield of all isomers (from C=CCc1c(CC(=O)N[C@@H](Cc2cccc(I)c2)C(=O)N(C)c2ccc(OC)cc2)c2ccccc2n1C(=O)OC(C)(C)C, cc_pd bond, Pd2(dba)3, acetonitrile, 19.6 mM, 82.0 °C): 57.4%
COc1ccc(N(C)C(=O)[C@@H]2Cc3cccc(c3)CCCc3[nH]c4ccccc4c3CC(=O)N2)cc1 [Example 1, (4S)—N-(4-methoxyphenyl)-N-methyl-2-oxo-2,3,4,5,11,12,13,14-octahydro-1H-6,10-(metheno)azacyclopentadecino[5,4-b]indole-4-carboxamide] | > 50.3 µM | 103% | ring closure, yield of all isomers (from COc1ccc(N(C)C(=O)[C@@H](N)Cc2cccc(CCCc3[nH]c4ccccc4c3CC(=O)O)c2)cc1, amide bond, DPPA, DIPEA, DMF, 2.99 mM, 25.0 °C, 16.0 h): 23.9%
COc1ccc(N(C)C(=O)[C@@H]2Cc3cccc(c3)CCSCc3[nH]c4ccccc4c3CC(=O)N2)cc1 [Example 5, (11S)—N-(4-methoxyphenyl)-N-methyl-13-oxo-3,4,10,11,12,13,14,19-octahydro-1H-9,5-(metheno)[1,7]thiazacyclohexadecino[3,4-b]indole-11-carboxamide] | 49.5 µM | 33.4% | ring closure, yield of all isomers (from COc1ccc(N(C)C(=O)[C@@H](N)Cc2cccc(CCSCc3[nH]c4ccccc4c3CC(=O)O)c2)cc1, amide bond, DPPA, DIPEA, DMF, 2.95 mM, 25.0 °C, 16.0 h): 65.8%
COc1ccc(N(C)C(=O)[C@@H]2Cc3cccc(c3)CSCc3[nH]c4ccccc4c3CC(=O)N2)cc1 [Example 15, (10S)—N-(4-methoxyphenyl)-N-methyl-12-oxo-9,10,11,12,13,18-hexahydro-1H-8,4-(metheno)[1,7]thiazacyclopentadecino[3,4-b]indole-10(3H)-carboxamide] | > 51.4 µM | 95.8% | ring closure, yield of all isomers (from COc1ccc(N(C)C(=O)[C@@H](N)Cc2cccc(CSCc3[nH]c4ccccc4c3CC(=O)O)c2)cc1, amide bond, DPPA, DIPEA, DMF, 3.01 mM, 25.0 °C, 16.0 h): 49.1%
COc1ccc(N(C)C(=O)[C@@H]2Cc3cccc(c3)SCc3[nH]c4ccccc4c3CC(=O)N2)cc1 [Example 18, (9S)—N-(4-methoxyphenyl)-N-methyl-11-oxo-8,9,10,11,12,17-hexahydro-1H-7,3-(metheno)[1,7]thiazacyclotetradecino[3,4-b]indole-9-carboxamide] | > 53 µM | 47.3% | ring closure, yield of all isomers (from COc1ccc(N(C)C(=O)[C@@H](N)Cc2cccc(SCc3[nH]c4ccccc4c3CC(=O)O)c2)cc1, amide bond, DPPA, DIPEA, DMF, 3.01 mM, 25.0 °C, 16.0 h): 65.5%
COc1ccc(N(C)C(=O)[C@@H]2Cc3cccc(c3)CSc3[nH]c4ccccc4c3CC(=O)N2)cc1 [Example 20, (9S)—N-(4-methoxyphenyl)-N-methyl-11-oxo-8,9,10,11,12,17-hexahydro-7,3-(metheno)[1,6]thiazacyclotetradecino[2,3-b]indole-9(2H)-carboxamide] | 45.2 µM | 97.7% | ring closure, yield of all isomers (from COc1ccc(N(C)C(=O)[C@@H](N)Cc2cccc(CSc3[nH]c4ccccc4c3CC(=O)O)c2)cc1, amide bond, DPPA, DIPEA, DMF, 3.0 mM, 25.0 °C, 16.0 h): 65.8%
COc1ccc(N(C)C(=O)[C@@H]2Cc3cccc(c3)CS(=O)(=O)c3[nH]c4ccccc4c3CC(=O)N2)cc1 [Example 21, (9S)—N-(4-methoxyphenyl)-N-methyl-11-oxo-8,9,10,11,12,17-hexahydro-7,3-(metheno)[1,6]thiazacyclotetradecino[2,3-b]indole-9(2H)-carboxamide 1,1-dioxide] | > 53 µM | 11.8% | –
COc1ccc(N(C)C(=O)[C@@H]2Cc3cccc(c3)/C=C/Cc3[nH]c4ccccc4c3CC(=O)N2)cc1 [Example 22, (4S,11E)-N-(4-methoxyphenyl)-N-methyl-2-oxo-2,3,4,5,13,14-hexahydro-1H-6,10-(metheno)azacyclopentadecino[5,4-b]indole-4-carboxamide] | > 52.6 µM | 64.5% | –
COc1ccc(N(C)C(=O)[C@@H]2Cc3cc(F)cc(c3)CCCc3[nH]c4ccccc4c3CC(=O)N2)cc1 [Example 23K, (4S)-8-fluoro-N-(4-methoxyphenyl)-N-methyl-2-oxo-2,3,4,5,11,12,13,14-octahydro-1H-6,10-(metheno)azacyclopentadecino[5,4-b]indole-4-carboxamide] | > 50.3 µM | 94% | –
CN(C(=O)[C@@H]1Cc2cc(F)cc(c2)CCCc2[nH]c3ccccc3c2CC(=O)N1)c1ccc(Cl)cc1 [Example 24, (4S)—N-(4-chlorophenyl)-8-fluoro-N-methyl-2-oxo-2,3,4,5,11,12,13,14-octahydro-1H-6,10-(metheno)azacyclopentadecino[5,4-b]indole-4-carboxamide] | 47.1 µM | 100% | –
CN(Cc1ccccc1)C(=O)[C@@H]1Cc2cc(F)cc(c2)CCCc2[nH]c3ccccc3c2CC(=O)N1 [Example 25, (4S)—N-benzyl-8-fluoro-N-methyl-2-oxo-2,3,4,5,11,12,13,14-octahydro-1H-6,10-(metheno)azacyclopentadecino[5,4-b]indole-4-carboxamide] | 52.3 µM | 84.9% | –
COc1ccc(N(C)C(=O)[C@@H]2Cc3cc(F)cc(c3)/C=C\Cc3[nH]c4ccccc4c3CC(=O)N2)cc1 [Example 26, (4S,11Z)-8-fluoro-N-(4-methoxyphenyl)-N-methyl-2-oxo-2,3,4,5,13,14-hexahydro-1H-6,10-(metheno)azacyclopentadecino[5,4-b]indole-4-carboxamide] | 34.8 µM | 79.9% | –
COc1ccc(N(C)C(=O)[C@@H]2Cc3cc(F)cc(c3)C/C=C/c3[nH]c4ccccc4c3CC(=O)N2)cc1 [Example 27, (4S,12E)-8-fluoro-N-(4-methoxyphenyl)-N-methyl-2-oxo-2,3,4,5,11,14-hexahydro-1H-6,10-(metheno)azacyclopentadecino[5,4-b]indole-4-carboxamide] | 18.9 µM | 92.5% | –
COc1ccc2[nH]c3c(c2n1)CC(=O)N[C@H](C(=O)N(C)c1ccc(Cl)cc1)Cc1cccc(c1)CC3 [Example 28, (14S)—N-(4-chlorophenyl)-2-methoxy-N-methyl-16-oxo-5,6,7,13,14,15,16,17-octahydro-12,8-(metheno)pyrido[2′,3′:4,5]pyrrolo[3,2-d]azacyclotetradecine-14-carboxamide] | 18.3 µM | 63.9% | –
CN(C(=O)[C@@H]1Cc2cccc(c2)CCc2[nH]c3ccc(=O)[nH]c3c2CC(=O)N1)c1ccc(Cl)cc1 [Example 29, (14S)—N-(4-chlorophenyl)-N-methyl-2,16-dioxo-1,2,5,6,7,13,14,15,16,17-decahydro-12,8-(metheno)pyrido[2′,3′:4,5]pyrrolo[3,2-d]azacyclotetradecine-14-carboxamide] | > 53 µM | 87.6% | –
CN(C(=O)[C@@H]1Cc2cccc(c2)CCCc2[nH]c3ccc(=O)[nH]c3c2CC(=O)N1)c1ccc(Cl)cc1 [Example 30, (15S)—N-(4-chlorophenyl)-N-methyl-2,17-dioxo-1,5,6,7,8,14,15,16,17,18-decahydro-2H-13,9-(metheno)pyrido[2′,3′:4,5]pyrrolo[3,2-d]azacyclopentadecine-15-carboxamide] | 24.4 µM | 0% | –
CN(C(=O)N1Cc2cc(F)cc(c2)CCCc2[nH]c3ccccc3c2CC(=O)N1)c1ccc(Cl)cc1 [Example 31, N-(4-chlorophenyl)-8-fluoro-N-methyl-2-oxo-2,3,11,12,13,14-hexahydro-1H-6,10-(metheno)[1,2]diazacyclopentadecino[6,5-b]indole-4(5H)-carboxamide] | 21.7 µM | 2.4% | –
